According to patent US20240366589A1, “NHE3-BINDING COMPOUNDS AND METHODS FOR INHIBITING PHOSPHATE TRANSPORT” (Ardelyx, Inc., priority 2013, published 2024):

Columns and labels:
[1] = system: absorption of sodium from the intestinal lumen; assay: Fecal form score (FFS) 16 h after oral dose in rats; format: in vivo, rat; conditions: oral gavage, 16 h post-dose, scale 1-5
Method: (§1) Inhibition of intestinal sodium and phosphate absorption. Urinary sodium concentration and fecal form were measured to assess the ability of selected example compounds to inhibit the absorption of sodium from the intestinal lumen. Eight-week old Sprague-Dawley rats were purchased from Charles River Laboratories (Hollister, CA), were housed 2 per cage, and acclimated for at least 3 days before study initiation. Animals were fed Harlan Teklad Global 2018 rodent chow (Indianapolis, IN) and water ad libitum throughout the study and maintained in a standard light/dark cycle of 6 AM to 6 PM. On the day of the study, between 4 PM and 5 PM, a group of rats (n=6) were dosed via oral gavage with test compound, or a pharmaceutically acceptable salt thereof, or vehicle (water) at a volume of 10 mL/kg.
(§2) After dose administration animals were placed in individual metabolic cages where they were also fed the same chow in meal form and watered ad libitum. At 16 h post-dose, the urine samples were collected and fecal form was assessed by two independent observations. Fecal forms were scored according to a common scale associated with increasing fecal water to the wettest observation in the cage's collection funnel (1, normal pellet; 2, pellet adhering to sides of collection funnel due to moisture; 3, loss of normal pellet shape; 4, complete loss of shape with a blotting pattern; 5, liquid fecal streams evident). A rat's fecal form score (FFS) was determined by averaging both observational scores for all rats within a group (n=6). The vehicle group average was 1.

[2] = system: phosphorus and calcium levels in the urine of rats; assay: Urinary excretion of phosphate and calcium in rats (16 h overnight urine); format: in vivo, rat; conditions: rats, oral gavage, 16 h post-dose
[3] = system: absorption of sodium from the intestinal lumen; assay: Inhibition of intestinal sodium absorption: urinary sodium (uNa) 16 h after single oral dose in rats; format: in vivo, rat; conditions: oral gavage, 16 h post-dose
Method: as §1, §2
For urine samples, the volumes were determined gravimetrically and centrifuged at 3,600×g. The supernatants were diluted 100-fold in deionized Milli-Q water then filtered through a 0.2 μm GHP Pall AcroPrep filter plate (Pall Life Sciences, Ann Arbor, MI) prior to analysis by ion chromatography. Ten microliters of each filtered extract was injected onto a Dionex ICS-3000 ion chromatograph system (Dionex, Sunnyvale, CA). Cations were separated by an isocratic method using 25 mM methanesulfonic acid as the eluent on an IonPac CS12A 2 mm i.d.×250 mm, 8 μm particle size cation exchange column (Dionex). Sodium was quantified using standards prepared from a cation standard mix containing Li^+, Na^+, NH4^+, K^+, Mg^2+, and Ca^2+ (Dionex). The mean mass of sodium urinated for every group in the 16 h period was determined with the vehicle group usually urinating approximately 21 mg sodium. The urine Na (uNa) for rats in the test groups were expressed as a percentage of the vehicle mean and the means were compared to that of the vehicle group by utilizing a one-way analysis of variance coupled with a Dunnett's post hoc test.
Further experiments were performed to test the compounds under the persistent and prompt conditions described above, and to test their effects on urinary excretion of sodium in rats. The latter was performed by orally dosing the compounds in rats (single dose) and measuring urinary Na excretion (as a % of vehicle). The results are indicated as percentage of urinary sodium (UNa %); low values indicate relatively active compounds.

Rat NHE3 = target: T1, Rat NHE3 (Rattus norvegicus, UniProt P26433); assay: Cell-based NHE3 activity under prompt conditions (OK cells, BCECF pH recovery), rat NHE3; conditions: prompt conditions
T1 construct: expressed in transfected cells; host or cells: Opossum kidney (OK) cells (ATCC), electroporation
Method: Cell-based activity under Prompt Conditions. Rat or human NHE3-mediated Na^+-dependent H antiport was measured using a modification of the pH sensitive dye method originally reported by Paradiso (PNAS USA. 81:7436-7440, 1984). Opossum kidney (OK) cells were obtained from the ATCC and propagated per their instructions. The rat NHE3 gene (GenBank M85300) or the human NHE3 gene (GenBank NM_004174.1) was introduced into OK cells via electroporation, and cells were seeded into 96 well plates and grown overnight. Medium was aspirated from the wells, cells were washed twice with NaCl-HEPES buffer (100 mM NaCl, 50 mM HEPES, 10 mM glucose, 5 mM KCl, 2 mM CaCl2, 1 mM MgCl2, pH 7.4), then incubated for 30 min at room temperature with NH4Cl-HEPES buffer (20 mM NH4Cl, 80 mM NaCl, 50 mM HEPES, 5 mM KCl, 2 mM CaCl2, 1 mM MgCl2, pH 7.4) containing 5 μM bis(acetoxymethyl) 3,3′-(3′,6′-bis(acetoxymethoxy)-5-((acetoxymethoxy)carbonyl)-3-oxo-3H-spiro[isobenzofuran-1,9′-xanthene]-2′,7′-diyl)dipropanoate (BCECF-AM).
Cells were washed twice with Ammonium free, Na^+-free HEPES (100 mM choline, 50 mM HEPES, 10 mM glucose, 5 mM KCl, 2 mM CaCl2, 1 mM MgCl2, pH 7.4) and incubated in the same buffer for 10 minutes at room temperature to lower intracellular pH. […] Initial rates were plotted as the average 2 or more replicates, and pIC50 values were estimated using GraphPad Prism.
Cell-based activity of NHE3 Activity under ‘Prompt’ Conditions. This assay was performed as described in Example 1 (supra).

T1 sequence (P26433 29-831): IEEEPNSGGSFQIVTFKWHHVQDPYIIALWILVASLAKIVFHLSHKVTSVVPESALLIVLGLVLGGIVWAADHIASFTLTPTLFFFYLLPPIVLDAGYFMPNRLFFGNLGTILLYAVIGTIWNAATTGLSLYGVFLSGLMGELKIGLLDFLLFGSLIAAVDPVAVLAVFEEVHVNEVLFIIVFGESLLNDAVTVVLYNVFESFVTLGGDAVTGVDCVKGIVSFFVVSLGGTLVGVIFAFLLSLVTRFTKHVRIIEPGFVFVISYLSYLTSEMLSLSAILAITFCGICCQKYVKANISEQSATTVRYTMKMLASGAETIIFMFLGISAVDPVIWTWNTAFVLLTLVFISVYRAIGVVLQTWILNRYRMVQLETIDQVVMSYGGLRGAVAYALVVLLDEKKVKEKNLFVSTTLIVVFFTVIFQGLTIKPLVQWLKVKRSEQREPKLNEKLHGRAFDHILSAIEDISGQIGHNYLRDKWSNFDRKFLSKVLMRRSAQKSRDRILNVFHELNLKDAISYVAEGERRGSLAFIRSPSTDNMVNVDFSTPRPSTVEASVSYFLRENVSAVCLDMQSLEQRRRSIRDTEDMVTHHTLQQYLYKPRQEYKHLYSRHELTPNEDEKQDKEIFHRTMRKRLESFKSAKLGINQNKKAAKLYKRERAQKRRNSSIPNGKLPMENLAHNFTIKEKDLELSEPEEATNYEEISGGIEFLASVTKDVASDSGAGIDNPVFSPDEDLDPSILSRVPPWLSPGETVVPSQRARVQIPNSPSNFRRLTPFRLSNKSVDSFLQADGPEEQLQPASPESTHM

Row | Compound | Fecal Form Score average ([1]; dose 10 mg/kg) | Urine P % of control ([2]; dose 10 mg/kg) [%] | Urine Na % of control ([3]; dose 10 mg/kg) [%] | Fecal Form Score average ([1]; dose 3 mg/kg) | Urine P % of control ([2]; dose 3 mg/kg) [%] | Urine Na % of control ([3]; dose 3 mg/kg) [%] | Prompt Rat NHE3 pIC50 (Rat NHE3) | Fecal Form Score average ([1]; dose 1 mg/kg) | Urine P % of control ([2]; dose 1 mg/kg) [%] | Urine Na % of control ([3]; dose 1 mg/kg) [%]
1 | CN(CC(=O)NCCOCCOCCNS(=O)(=O)c1ccc(O[C@H]2c3ccccc3C[C@@H]2N2CCCCC2)cc1)CC(=O)NCCOCCOCCNS(=O)(=O)c1ccc(O[C@H]2c3ccccc3C[C@@H]2N2CCCCC2)cc1 (racemic) [compound 50] | 1 | 50 | 82 | – | – | – | – | – | – | –
2 | CN1Cc2c(Cl)cc(Cl)cc2[C@H](c2cccc(S(=O)(=O)NCCOCCOCCNC(=O)CCC(CCC(=O)NCCOCCOCCNS(=O)(=O)c3cccc([C@@H]4CN(C)Cc5c(Cl)cc(Cl)cc54)c3)(CCC(=O)NCCOCCOCCNS(=O)(=O)c3cccc([C@@H]4CN(C)Cc5c(Cl)cc(Cl)cc54)c3)NC(=O)[C@H]3CCCC[C@@H]3C(=O)O)c2)C1 (racemic) [compound 141] | – | – | – | 2 | 24 | 63 | – | – | – | –
3 | CN1Cc2c(Cl)cc(Cl)cc2C(c2cccc(S(=O)(=O)NCCOCCOCCNC(=O)CN(CCOCCOCCOCCN)CC(=O)NCCOCCOCCNS(=O)(=O)c3cccc([C@@H]4CN(C)Cc5c(Cl)cc(Cl)cc54)c3)c2)C1 (stereo in doubt) [compound 120] | – | – | – | 1 | 71 | 71 | 7.80 | – | – | –
4 | CN1Cc2c(Cl)cc(Cl)cc2C(c2cccc(S(N)(=O)=O)c2)C1 (centres unmarked) [compound 1] | 1 | 52 | 87 | – | – | – | 6.60 | – | – | –
5 | CN1Cc2c(Cl)cc(Cl)cc2[C@@H](c2cccc(S(=O)(=O)NCCOCCOCCNC(=O)NCCCCNC(=O)NCCOCCOCCNS(=O)(=O)c3cccc([C@@H]4CN(C)Cc5c(Cl)cc(Cl)cc54)c3)c2)C1 [compound 39] | 1 | 130 | 68 | – | – | – | 7.30 | 1 | 166 | 71
6 | CCCCCCCCCCC(=O)NCCOCCOCCOCCNS(=O)(=O)c1cccc([C@@H]2CN(C)Cc3c(Cl)cc(Cl)cc32)c1 [compound 92] | 1 | 70 | 62 | – | – | – | <5.00 | – | – | –
7 | CN1Cc2c(Cl)cc(Cl)cc2[C@H](c2cccc(S(=O)(=O)NCCOCCOCCOCCNC(=O)c3ccc(-c4ccc(Cl)cc4)cc3)c2)C1 [compound 93] | 1 | 75 | 78 | – | – | – | <5.00 | – | – | –
8 | CCCCCCCCOCCOCCOCCOCCOCCOC(=O)NCCOCCOCCOCCNS(=O)(=O)c1cccc([C@@H]2CN(C)Cc3c(Cl)cc(Cl)cc32)c1 [compound 102] | 1 | 92 | 86 | – | – | – | 6.60 | – | – | –
9 | CCC(=O)NCCOCCOCCOCCNS(=O)(=O)c1cccc([C@@H]2CN(C)Cc3c(Cl)cc(Cl)cc32)c1 [compound 103] | 1 | 71 | 40 | – | – | – | 6.70 | – | – | –
10 | C=CC(=O)NCCOCCOCCOCCNS(=O)(=O)c1cccc([C@@H]2CN(C)Cc3c(Cl)cc(Cl)cc32)c1 [compound 104] | 2 | 62 | 56 | – | – | – | 6.70 | – | – | –
11 | CN1Cc2c(Cl)cc(Cl)cc2[C@H](c2cccc(S(=O)(=O)NCCOCCOCCNC(=O)CN(CCOCCOCCOCCNC(=O)c3ccc(-c4ccc(Cl)cc4)cc3)CC(=O)NCCOCCOCCNS(=O)(=O)c3cccc([C@@H]4CN(C)Cc5c(Cl)cc(Cl)cc54)c3)c2)C1 [compound 105] | – | – | – | 1 | 154 | 119 | 5.90 | – | – | –
12 | CN1Cc2c(Cl)cc(Cl)cc2[C@H](c2cccc(S(=O)(=O)NCCOCCOCCNC(=O)NCCN(CCNC(=O)NCCOCCOCCNS(=O)(=O)c3cccc([C@@H]4CN(C)Cc5c(Cl)cc(Cl)cc54)c3)C(=O)NCCOCCOCCN)c2)C1 [compound 108] | – | – | – | 4 | 51 | 13 | 8.40 | – | – | –
13 | CN1Cc2c(Cl)cc(Cl)cc2[C@H](c2cccc(S(=O)(=O)NCCOCCOCCNC(=O)NCCN(CCNC(=O)NCCOCCOCCNS(=O)(=O)c3cccc([C@@H]4CN(C)Cc5c(Cl)cc(Cl)cc54)c3)C(=O)NCCOCCOCCNC(=O)c3ccc(-c4ccc(Cl)cc4)cc3)c2)C1 [compound 110] | – | – | – | 1 | 68 | 63 | 5.80 | – | – | –
14 | CCCCCCCCOc1ccc(CNCCOCCOCCOCCNS(=O)(=O)c2cccc([C@@H]3CN(C)Cc4c(Cl)cc(Cl)cc43)c2)cc1 [compound 111] | 2 | 69 | 60 | – | – | – | <5.00 | – | – | –
15 | CN1Cc2c(Cl)cc(Cl)cc2[C@H](c2cccc(S(=O)(=O)NCCOCCOCCOCCNCc3ccc(-c4ccc(Cl)cc4)cc3)c2)C1 [compound 112] | 1 | 67 | 73 | – | – | – | <5.00 | – | – | –
16 | CC(C)CCC[C@@H](C)[C@H]1CC[C@H]2[C@@H]3CC=C4C[C@@H](OC(=O)NCCOCCOCCNC(=O)N(CCNC(=O)NCCOCCOCCNS(=O)(=O)c5cccc([C@@H]6CN(C)Cc7c(Cl)cc(Cl)cc76)c5)CCNC(=O)NCCOCCOCCNS(=O)(=O)c5cccc([C@@H]6CN(C)Cc7c(Cl)cc(Cl)cc76)c5)CC[C@]4(C)[C@H]3CC[C@]12C [compound 121] | – | – | – | 1 | 151 | 92 | <5.00 | – | – | –
